Measured values taken from US6482797B1, “N-terminal site selective inhibitors of human angiotensin conversion enzyme (ACE)” (Commissariat A l'Energie Atomique, priority 1998, dated 2002).
Where two headings read alike, the source gives them in different places. One block for each compound: values may come before it. Where a SMILES comes first, the peptide text is derived from it.

What was measured:
[1] = molecular target: T1, N-terminal site of human angiotensin-converting enzyme (Active N-terminal ACE) (Homo sapiens, UniProt P12821, H988K/H992K); experiment: ACE inhibition, quenched fluorescence substrate, N-terminal mutant (C-terminal site inactive); assay type: biochemical; details: for degree of selectivity in favour of the N-terminal site (FIG. 3): N-terminal site at 100 nM, C-terminal site at 5 μM
T1 construct: made in house; host or cells: CHO cells
T1 sequence (P12821 30-1306 H988K/H992K): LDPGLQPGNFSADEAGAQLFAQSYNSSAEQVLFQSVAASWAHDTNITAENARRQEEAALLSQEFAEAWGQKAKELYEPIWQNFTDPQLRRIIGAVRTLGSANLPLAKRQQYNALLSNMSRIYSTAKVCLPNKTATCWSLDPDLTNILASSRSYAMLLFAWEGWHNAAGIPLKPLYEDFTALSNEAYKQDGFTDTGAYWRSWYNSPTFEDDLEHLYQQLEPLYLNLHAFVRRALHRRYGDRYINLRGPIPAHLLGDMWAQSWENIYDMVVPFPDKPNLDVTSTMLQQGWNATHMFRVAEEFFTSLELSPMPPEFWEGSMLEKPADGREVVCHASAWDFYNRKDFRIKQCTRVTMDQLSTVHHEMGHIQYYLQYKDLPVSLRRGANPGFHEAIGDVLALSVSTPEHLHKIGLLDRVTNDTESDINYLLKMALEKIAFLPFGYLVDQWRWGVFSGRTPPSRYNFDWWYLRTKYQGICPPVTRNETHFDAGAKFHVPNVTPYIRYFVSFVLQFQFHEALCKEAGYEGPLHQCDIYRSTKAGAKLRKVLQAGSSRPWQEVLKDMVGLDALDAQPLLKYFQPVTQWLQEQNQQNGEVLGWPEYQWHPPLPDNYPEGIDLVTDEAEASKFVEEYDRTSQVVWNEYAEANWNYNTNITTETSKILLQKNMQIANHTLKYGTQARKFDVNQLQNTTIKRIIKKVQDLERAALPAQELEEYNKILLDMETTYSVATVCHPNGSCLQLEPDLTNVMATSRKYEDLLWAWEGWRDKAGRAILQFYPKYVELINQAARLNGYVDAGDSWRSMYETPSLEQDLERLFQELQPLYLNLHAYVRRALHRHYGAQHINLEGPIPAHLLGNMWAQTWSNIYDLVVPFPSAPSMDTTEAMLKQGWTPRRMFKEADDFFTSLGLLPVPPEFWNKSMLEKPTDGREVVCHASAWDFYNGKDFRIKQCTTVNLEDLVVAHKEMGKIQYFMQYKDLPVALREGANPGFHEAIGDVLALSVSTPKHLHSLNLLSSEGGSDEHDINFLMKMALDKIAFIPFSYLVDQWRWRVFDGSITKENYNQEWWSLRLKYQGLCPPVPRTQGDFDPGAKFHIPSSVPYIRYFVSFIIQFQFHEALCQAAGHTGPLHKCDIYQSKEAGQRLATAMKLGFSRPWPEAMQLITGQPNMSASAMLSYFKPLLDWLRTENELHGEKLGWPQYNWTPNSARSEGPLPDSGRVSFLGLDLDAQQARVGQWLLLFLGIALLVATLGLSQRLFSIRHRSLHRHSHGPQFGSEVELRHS
Procedure: (§1) Said mixtures were evaluated at final peptide concentrations of 200 nM in order to determine their ACE inhibitory capacity. To assay ACE, a new quenched fluorescence ACE substrate (Mca-Ala-Ser-Asp-Lys-Dpa) was developed, where Mca represents methoxy coumarine and Dpa 2-(N-dinitrophenyl)aminopropionic acid. Said substrate, which is […], emits an intense fluorescent signal after splitting, between the Asp and Lys residues, by ACE. Using this type of substrate, it is possible to test the inhibitory power of a very large number of compounds in Elisa plates.
(§2) The inhibitory power of the compounds is determined in a conventional competition test based on the breakdown of the quenched fluorescence substrate […]. The breakdown of said substrate by ACE results in the observation of a fluorescent signal at 400 nm, when the sample is excited at 328 nm. The inhibition experiments are conducted in Elisa plate wells, in volumes of 200 μl of buffer: pH 6.8, 50 mM Hepes, 200 mM NaCl, 1 mM ZnCl2, at 25° C., in a Dynatech Fluorolite 1000 type unit. The concentration of the substrate in a typical experiment is 20 μM. For the inhibition experiments, the inhibitor is placed in the presence of the enzyme for 45 min, and the reaction is then initiated by simply adding a very small volume of substrate. The inhibition percentages are calculated from the initial rate variations in the presence of inhibitor. The breakdown kinetics were determined from the record of the fluorescence variations over a 40 min time interval.
(§3) Said mutants were produced from CHO cells.

[2] = molecular target: T2, C-terminal site of human angiotensin-converting enzyme (Active C-terminal ACE) (Homo sapiens, UniProt P12821, H390K/H394K); experiment: ACE inhibition, quenched fluorescence substrate, C-terminal mutant (N-terminal site inactive); assay type: biochemical; details: C-terminal mutant of ACE from CHO cells
T2 construct: made in house; host or cells: CHO cells
T2 sequence (P12821 30-1306 H390K/H394K): as the sequence (P12821 30-1306 H988K/H992K) above, with H361K, H365K, K959H, K963H counted along it
Procedure: as §1, §2, §3

[3] = system: ACE N-terminal domain versus C-terminal domain; details: in vitro; cited from earlier work
plasma renin = experiment: Plasma renin level (angiotensin I formed) after infusion; assay type: in vivo; details: mice; RXP 407 0.1, 1, 10 mg/kg; Lisinopril 10 mg/kg
Procedure: In this example, the effect of RXP 407 on the levels of renin, another enzyme involved in arterial pressure regulation, is determined. Inhibition of ACE with a conventional inhibitor of said enzyme stops the hydrolysis of angiotensin I into angiotensin II. Angiotensin is indeed one of the physiological substrates of ACE. The decrease in the angiotensin II level in plasma by a retrocontrol mechanism, increases the plasma level of renin, an enzyme directly involved in the production of angiotensin I, from angiotensinogen.
In this way, the inhibition of ACE may be monitored indirectly by the plasma renin level.
This level may be evaluated by the capacity of renin in plasma samples to hydrolyse excess angiotensinogen present in mouse plasma. The formation of angiotensin I is then measured by a radioimmunological assay and the renin level is expressed in ng of angiotensin I formed per ml of plasma and per hour of incubation.

[4] = Elimination and metabolism of tritiated RXP 407 in vivo; parameters: species or system rats; details: rat
Procedure: (§4) For this purpose, an RXP 407 comprising three tritium atoms on the N-acetyl group is synthesised to be able to conduct a study on the pharmacokinetics and metabolism of said molecule in rats, by injecting said product at doses of 0.1, 1 and 5 mg/kg by intravenous bolus.

wild human ACE = molecular target: T3, wild human ACE (Homo sapiens, UniProt P12821); experiment: Inhibition of natural ACE as a function of RXP 407 concentration; assay type: biochemical; details: wild human ACE from CHO cells
T3 construct: made in house; host or cells: CHO cells
T3 sequence (P12821 30-1306): as the sequence (P12821 30-1306 H988K/H992K) above, with K959H, K963H counted along it
Procedure: as §2
In this example, the RXP 407 peptide is used as a natural ACE inhibitor, and the effect of the RXP 407 concentration (in nM) on the ACE inhibition percentage is studied.
The inhibitory power of the compound is determined as in example 1 using wild human ACE produced by CHO cells according to the protocol described in the reference Wei et al, J. Biol. Chem. (1992) 267, 13398-13405 [14].

[5] = system: plasma Ac-Ser-Asp-Lys-Pro (Ac-SDKP); experiment: Plasma Ac-SDKP concentration after 30 minute infusion; assay type: in vivo; details: mice, infusion for 30 minutes; RXP 407 0.1, 1, 10 mg/kg; Lisinopril 10 mg/kg
Procedure: For this purpose, the mice undergo an infusion of RXP 407 for 30 minutes, at doses of 0.1, 1 and 10 mg/kg and the Ac-Ser-Asp-Lys-Pro-(Ac-SDKP) peptide concentration of the mouse plasma is determined.
The Ac-Ser-Asp-Lys-Pro is determined by a competition immunoenzyme assay using polyclonal antibodies and Ac-SDKP linked to Electrophorus Electricus acetyicholinesterase.
The same plasma Ac-SDKP measurements are made on mice infused with Lisinopril of a 10 mg/kg dose and on non-infused control mice. Lisinopril is an inhibitor used in clinical practice which inhibits both active sites of ACE non-selectively.

[6] = Plasma concentration of tritiated RXP 407 after intravenous bolus; parameters: species or system rats; details: rat, in vivo, 5 mg/kg
Procedure: as §4
The plasma concentration of RXP 407 as a function of time is then determined.
The results obtained are represented in FIG. 7. Curve 1 corresponds to 0.1 mg/kg, curve 2 to 1 mg/kg and curve 3 to 5 mg/kg. The dotted curve illustrates the Ki of RXP 407 (20 nM).

plasma AcSDKP = details: single dose, healthy volunteer subjects; cited from earlier work
[7] = N-terminal mutant of ACE from CHO cells, read-out: Ki Active N-terminal ACE

- Ki [1, 7]: 15 nM
- Ki [2]: 200 nM
Compound: CC(=O)N[C@@H](C)C(=O)NC(Cc1ccccc1)P(=O)(O)CC(C)C(=O)N[C@@H](C)C(N)=O (stereo partly shown) [Ac-Ala-Pheψ (PO2CH2) Ala-AlaNH2]

Compound: CC(=O)N[C@@H](CC(=O)O)C(=O)NC(Cc1ccccc1)P(=O)(O)CC(C)C(=O)N[C@@H](C)C(N)=O (stereo partly drawn) [Ac-Asp-Pheψ (PO2CH2) Ala-AlaNH2, Ac-Asp-PheΨ(PO2CH2)Ala-Ala-NH2]
- Ki [1, 7]: 25 nM
- degree of selectivity in favour of the N-terminal site (FIG. 3) [1]: improve the degree of selectivity in favour of the N-terminal site

- Ki [1, 7]: 2 nM
- Ki [2]: 7 nM
Compound: CC(=O)N[C@@H](CC(=O)O)C(=O)NC(Cc1ccccc1)P(=O)(O)CC(C)C(=O)N[C@@H](C)C(=O)O (stereo partly shown) [Ac-Asp-Pheψ (PO2CH2) Ala-AlaOH]

Compound: CC(=O)N[C@@H](CO)C(=O)N[C@@H](CC(=O)O)C(=O)N[C@@H](CCCCN)C(=O)N1CCC[C@H]1C(=O)O [AcSDKP, N-Acetyl-Seryl-Aspartyl-Lysyl-Proline] (Ac-SDKP-OH)
- hydrolysed more quickly by the N-terminal domain than by the C-terminal domain [3]: 50 times

- Ki [1, 7]: 5 nM
- Ki [2]: 800 nM
Compound: CC(CP(=O)(O)C(Cc1ccccc1)NC(=O)[C@@H](N)CC(=O)O)C(=O)N[C@@H](C)C(N)=O (stereo partly shown) [H2N-Asp-Pheψ (PO2CH2) Ala-AlaNH2]

- Ki [1, 7]: 2 nM
- Ki [2]: 60 nM
Compound: CC(CP(=O)(O)C(Cc1ccccc1)NC(=O)[C@@H](N)CC(=O)O)C(=O)N[C@@H](C)C(=O)O (stereo partly shown) [H2N-Asp-Pheψ (PO2CH2) Ala-AlaOH]

Compound: NCCCC[C@H](N[C@@H](CCc1ccccc1)C(=O)O)C(=O)N1CCC[C@H]1C(=O)O [Lisinopril, reference compound]
- plasma renin level (FIG. 9) (plasma renin): induces an increase in the plasma renin level

Compound: CC(=O)N[C@@H](CC(=O)O)C(=O)N[C@@H](Cc1ccccc1)P(=O)(O)C[C@@H](C)C(=O)N[C@@H](C)C(N)=O [RXP 407, Ac-Asp-(R)Phe(PO2CH2)-(S)Ala-Ala-NH2]
- Ki [1, 7]: 12 nM
- Ki ([1]; value drawn in plasma concentration figure, read-out: Ki of RXP 407 (dotted curve of FIG. 7)): 20 nM
- plasma renin level (FIG. 9) (plasma renin): does not induce an increase in renin
- Total [4]: 100.09±7 % of injected radioactivity
- eliminated in urine [4]: 87%
- metabolism (structure of the product in urine and faeces) [4]: does not undergo any metabolism
- product detected in the airways [4]: No trace of this product is detected
- dose excreted ([4]; iv, total radioactivity): 13%
- IC50 values with respect to the N and C-terminal sites of natural ACE (inflection points, FIG. 6) (wild human ACE): compatible with the Ki values measured using the ACE mutants
- plasma level of Ac-SDKP peptide (FIG. 8) [5]: very significant increase
- plasma RXP 407 concentration [6]: 100 ng/mL

Compound: C[C@H](CS)C(=O)N1CCC[C@H]1C(=O)O [captopril]
- increase of the plasma level of AcSDKP (plasma AcSDKP): 6 to 7 fold

Compound: proline
- degree of selectivity in favour of the N-terminal site (FIG. 3) [1]: improve the degree of selectivity in favour of the N-terminal site
